Results as given in patent US10876088B2, “Modular organ microphysiological system with integrated pumping, leveling, and sensing” (Massachusetts Institute of Technology, priority 2016, dated 2020).
Values belong to the compound of their own block, whether it stands above or below them.

Columns and labels:
[1] = tested on: hepatocyte-Kupffer cocultured liver MPS; assay: Hydrocortisone effect on cocultured liver MPS; format: cell-based, human
Protocol: (§1) Metabolic and immunologically competent 3D cryopreserved human hepatocytes and kupffer cells were cocultured.
The secretions of interleukin 6 (IL-6) and tumor necrosis factor alpha (TNFα) of the cocultured liver MPS were measured. The reproducibility of IL-6 response to LPS stimulus was determined. A physiologically-relevant (relatively low) level of cortisol was used in the common media.

[2] = tested on: immune-competent liver MPS (hepatocytes and Kupffer cells)
Protocol: as §1
An immune-competent liver MPS model was prepared and studied.

endometrium MPS = assay: Drug toxicity in endometrium MPS; format: cell-based
Protocol: An exemplary endometrium model of cell culture system in a […]® on the MPS platform includes hydrogel encapsulating stromal cells and epithelial cells on top surface of the hydrogel were cultured on the apical side of the […]®. […] The cell line used was Ishikawa human stage 1 adenocarincoma cell line, which were estrogen and progesterone receptor positive, polarized in matrigel (Chitcholtan et al., Exp Cell Research, (2013)) or functionalized PEG gels, and had low/variable secretion of glycodelin. […] The cell line used was human tert-immortalized cell line (tHESC), which was highly proliferative and stable, had low/variable secretion of prolactin or IGF-BP1 without strong decidualization cues, and could be quiesced in PEG gels.
An endometrium MPS model was prepared and studied.

[3] = tested on: immune-competent gut-liver interacted MPS; assay: Gut-liver 2-way MPS, tolcapone added to gut ("oral"); format: cell-based, human
Protocol: Tolcapone was added to the gut MPS to mimick “oral” administration. Metrics were an volume-weighted average from the 3 media compartments: Signalsystemic=Signalapical, gut*Vapical, gut+Signalbasal, gut*Vbasal, gut+Signalliver*Vliver.

[4] = tested on: immune-competent gut MPS (Caco2, HT29-MTX, dendritic cells)
[5] = human, in vivo
7-way MPS platform = tested on: 7-way MPS platform
Protocol: The 7-way platform include gut (immune-competent), liver (immune-competent), lung, endometrium, cardiac, brain, and pancreas MPSs, and was assessed for survivability and function over a 3-week period. Each MPS was differentiated or matured in isolation prior to the interaction study. Platforms were run at a systemic flow rate of Qmix=10 mL/day, with flow partitioning. During the medium changes, a basal common medium was used for the gut, lung, liver, and endometrium MPSs, while the new MPS were supplied with their preferred maintenance media. Each basal medium was then allowed to mix throughout the course of the interaction, with media changes at 48-hour intervals. Functionality of each MPS was evaluated every 2-4 days up to 3 weeks, in comparison to isolated MPSs to benchmark the non-interacting MPS functions.

[6] = oral, in vivo; read-out: maximum measured plasma concentration, Cmax; cited from earlier work
[7] = tested on: hepatocyte-Kupffer cell co-cultures; assay: LPS stimulus of hepatocyte-Kupffer co-cultures; format: cell-based, human

CYP450 activity dependence on hydrocortisone levels ([1]; 21 day cultures): sensitive
Compound: C[C@]12CCC(=O)C=C1CC[C@@H]1[C@@H]2[C@@H](O)C[C@@]2(C)[C@H]1CC[C@]2(O)C(=O)CO [Hydrocortisone]
differentiated function ([1]; cocultured liver MPS): enhanced differentiated function
inflammatory response ([1]; cocultured liver MPS): suppressed inflammatory response

mitochondrial activity ([2]; immune-competent liver MPS): decreased mitochondrial activity
gut and liver function [3]: MPS-specific loss of function
epithelial barrier integrity / epithelial function [4]: complete loss of epithelial function
Compound: Cc1ccc(C(=O)c2cc(O)c(O)c([N+](=O)[O-])c2)cc1 [Tolcapone]
cell death ([2]; immune-competent liver MPS): caused cell death
loss of function and cellular death (endometrium MPS): loss of function correlating with cellular death
generic cell death marker [3]: insensitive
cell death markers ([3]; MPS-specific markers): suffered from MPS-specific cell death markers
cell death [4]: severe cellular death

Compound: O=C(O)Cc1ccccc1Nc1c(Cl)cccc1Cl [Diclofenac, diclofenac]
liver functions [2]: impaired liver functions
cell death ([2]; immune-competent liver MPS): cell death was minimal
loss of function and cellular death (endometrium MPS): loss of function correlating with cellular death
free drug elimination per cell rate constant [5]: 1.76×10^−10 (cell*min)^−1
absorption and distribution across MPS compartments (7-way MPS platform): absorbed across the gut epithelial barrier
unbound intrinsic clearance CL_int(u) (7-way MPS platform; human): 13.90 µL/min
Cmax [6]: 2 to 6 µM

Compound: Lipopolysaccharide
lowest LPS stimulus to which co-cultures were responsive [7]: ≥ 0.01 µg/mL
